Experimental data taken from paper PMC11096414 (Nature Communications, 2024).

What was measured:
Format in all cases: cell-based
[1] = target: T1, MAVS (Homo sapiens, UniProt Q7Z434); assay: competition with 4-OI-alk in affinity pull-down, immunoblot; settings: covalent; 125 μM 4-OI for 30 min, then 125 μM 4-OI-alk for 4 h in intact 786-O cells
T1 construct: endogenous full-length protein in 786-O cells, detected by anti-MAVS immunoblot

[2] = target: T2, IKKβ (Homo sapiens, UniProt O14920); assay: as above; settings: covalent; 125 μM 4-OI for 30 min, then 125 μM 4-OI-alk for 4 h in intact 786-O cells
T2 construct: gene IKBKB; endogenous full-length protein in 786-O cells, detected by anti-IKKβ immunoblot
T2 sequence (O14920 1-756): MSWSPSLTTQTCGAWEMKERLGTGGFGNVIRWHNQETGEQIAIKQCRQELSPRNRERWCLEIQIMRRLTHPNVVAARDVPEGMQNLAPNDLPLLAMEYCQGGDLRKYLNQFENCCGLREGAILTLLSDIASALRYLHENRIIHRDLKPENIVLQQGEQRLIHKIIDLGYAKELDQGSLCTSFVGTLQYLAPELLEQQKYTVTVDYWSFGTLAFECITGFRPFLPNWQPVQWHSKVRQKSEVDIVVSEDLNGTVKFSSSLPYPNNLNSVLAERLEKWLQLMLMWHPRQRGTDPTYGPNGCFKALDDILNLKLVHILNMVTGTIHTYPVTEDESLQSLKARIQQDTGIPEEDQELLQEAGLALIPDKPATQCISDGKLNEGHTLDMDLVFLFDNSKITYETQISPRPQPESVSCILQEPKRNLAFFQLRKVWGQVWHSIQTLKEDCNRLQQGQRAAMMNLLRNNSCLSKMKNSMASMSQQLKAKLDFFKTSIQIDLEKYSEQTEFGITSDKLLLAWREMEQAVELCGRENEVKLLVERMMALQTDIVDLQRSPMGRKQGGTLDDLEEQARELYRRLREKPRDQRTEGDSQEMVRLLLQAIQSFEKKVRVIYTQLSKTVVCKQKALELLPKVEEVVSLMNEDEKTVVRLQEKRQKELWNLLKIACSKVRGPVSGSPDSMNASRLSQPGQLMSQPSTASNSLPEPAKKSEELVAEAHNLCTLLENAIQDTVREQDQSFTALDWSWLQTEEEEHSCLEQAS

[3] = target: T1, MAVS; assay: alkyne probe labelling in cells, CuAAC to biotin azide, streptavidin pull-down, immunoblot; settings: covalent; 125 μM, 4 or 24 h in intact 786-O cells
[4] = target: T3, JAK1 (Homo sapiens, UniProt P23458); assay: as above; settings: covalent; 125 μM in intact 786-O cells
T3 construct: endogenous full-length protein in 786-O cells, detected by anti-Jak1 immunoblot
T3 sequence (P23458 whole entry): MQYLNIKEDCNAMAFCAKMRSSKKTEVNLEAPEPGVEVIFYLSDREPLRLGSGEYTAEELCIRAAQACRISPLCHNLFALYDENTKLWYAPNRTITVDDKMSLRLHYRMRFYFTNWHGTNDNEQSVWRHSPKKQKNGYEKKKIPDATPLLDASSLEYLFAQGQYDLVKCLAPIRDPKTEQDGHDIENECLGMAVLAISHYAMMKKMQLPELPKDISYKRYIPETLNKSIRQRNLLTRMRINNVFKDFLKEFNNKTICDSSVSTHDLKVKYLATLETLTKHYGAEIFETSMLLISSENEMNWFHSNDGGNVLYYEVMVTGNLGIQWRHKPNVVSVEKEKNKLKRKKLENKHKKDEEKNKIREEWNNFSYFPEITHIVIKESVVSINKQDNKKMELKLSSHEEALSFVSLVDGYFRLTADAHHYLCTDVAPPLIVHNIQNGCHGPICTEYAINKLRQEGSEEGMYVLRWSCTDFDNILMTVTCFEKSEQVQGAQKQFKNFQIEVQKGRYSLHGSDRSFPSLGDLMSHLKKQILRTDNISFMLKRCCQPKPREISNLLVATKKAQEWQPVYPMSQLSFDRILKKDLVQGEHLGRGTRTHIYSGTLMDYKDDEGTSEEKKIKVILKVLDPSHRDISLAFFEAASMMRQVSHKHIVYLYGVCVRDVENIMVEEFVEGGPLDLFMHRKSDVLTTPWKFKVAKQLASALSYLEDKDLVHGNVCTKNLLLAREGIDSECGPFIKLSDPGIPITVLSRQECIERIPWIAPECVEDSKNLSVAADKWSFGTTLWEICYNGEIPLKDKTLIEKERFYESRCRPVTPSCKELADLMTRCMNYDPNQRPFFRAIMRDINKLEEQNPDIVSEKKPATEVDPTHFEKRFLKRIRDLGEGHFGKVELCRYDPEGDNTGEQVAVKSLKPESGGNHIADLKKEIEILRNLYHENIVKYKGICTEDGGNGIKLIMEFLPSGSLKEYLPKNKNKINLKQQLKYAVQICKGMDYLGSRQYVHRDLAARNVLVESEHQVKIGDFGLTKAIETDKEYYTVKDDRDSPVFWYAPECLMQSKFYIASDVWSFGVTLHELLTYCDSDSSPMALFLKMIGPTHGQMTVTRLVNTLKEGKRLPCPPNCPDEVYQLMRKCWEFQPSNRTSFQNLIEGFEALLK

[5] = target: T2, IKKβ; assay: as above; settings: covalent; 125 μM in intact 786-O cells
[6] = target: T4, Flag-MAVS (Homo sapiens, UniProt Q7Z434); assay: alkyne probe labelling in transfected cells, CuAAC to biotin azide, streptavidin pull-down, anti-Flag immunoblot; settings: covalent; 125 μM, 4 h in intact HEK293T cells
T4 construct: Flag-tagged MAVS expressed from plasmid in HEK293T cells
T4 sequence (Q7Z434 2-540): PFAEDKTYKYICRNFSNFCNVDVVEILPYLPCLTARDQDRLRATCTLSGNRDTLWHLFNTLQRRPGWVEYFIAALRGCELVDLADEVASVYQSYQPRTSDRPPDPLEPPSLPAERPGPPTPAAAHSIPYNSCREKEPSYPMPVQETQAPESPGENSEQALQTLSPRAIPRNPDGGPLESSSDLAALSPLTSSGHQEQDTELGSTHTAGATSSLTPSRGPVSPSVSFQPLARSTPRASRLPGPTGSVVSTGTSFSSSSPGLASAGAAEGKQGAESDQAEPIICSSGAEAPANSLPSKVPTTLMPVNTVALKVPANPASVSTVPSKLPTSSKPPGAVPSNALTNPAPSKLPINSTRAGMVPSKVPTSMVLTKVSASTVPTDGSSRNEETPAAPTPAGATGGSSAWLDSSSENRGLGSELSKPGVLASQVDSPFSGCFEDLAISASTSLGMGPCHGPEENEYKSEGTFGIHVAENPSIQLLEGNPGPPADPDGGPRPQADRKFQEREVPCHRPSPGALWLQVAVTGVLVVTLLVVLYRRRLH

T1 sequence (Q7Z434 2-540): as above

SMILES	competition with 4-OI-alk in affinity pull-down, immunoblot [1]	competition with 4-OI-alk in affinity pull-down, immunoblot [2]	alkyne probe labelling in cells, CuAAC to biotin azide, streptavidin pull-down, [3]	alkyne probe labelling in cells, CuAAC to biotin azide, streptavidin pull-down, [4]	alkyne probe labelling in cells, CuAAC to biotin azide, streptavidin pull-down, [5]	alkyne probe labelling in transfected cells, CuAAC to biotin azide, streptavidin [6]
C=C(CC(=O)OCCCCCCCC)C(=O)O [4-OI, 4-octyl itaconate]	non-alkyne-tagged 4-OI to compete with 4-OI-alk led to a reduced interaction between MAVS and 4-OI-alk	non-tagged 4-OI competed with 4-OI-alk and reduced the interaction between IKKβ and 4-OI-alk				
C#CCCCCCCOC(=O)CC(=C)C(=O)O [4-OI-alk, 2-methylene-4-(oct-7-yn-1-yloxy)−4-oxobutanoic acid]			We observed an enrichment in 4-OI-alk labeling of MAVS, demonstrating the protein-drug interaction	We confirmed the binding of 4-OI-alk to JAK1 in our cellular model	We further validated the interaction between IKKβ and 4-OI-alk in cancer cells by pull-down	partial reduction of 4-OI-alk labeling of MAVS C283A compared to MAVS wt
